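Protocol summary: plate cells (96-well), add compound at 5 concentrations, incubate 48 h, interpolate endpoints linearly. At the GI50, growth is halved.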 Calls of active or inactive are those of the source. Rule as the data show it: active = GI50 up to about 1.1 µM and inactive = higher.

The values below come from ChEMBL document CHEMBL1201862, “PubChem BioAssay data set” (2004).

Some test systems named below: OVCAR-8; HCC 2998; UACC-257; SNB-19; HOP-92; A549; OVCAR-4; COLO 205; M14; NCI/ADR-RES; SK-MEL-5; NCI-H23; KM12; LOX IMVI; MCF7; T47D; TK-10; OVCAR-5.
Common to all, as to experiment: NCI-60 cell line screen, 48 h

As for `C/C(CC(O)(C(F)(F)F)C(F)(F)F)=N\NC(N)=S`, the GI50 in the experiment with OVCAR-8, with HCC 2998, in the experiment with UACC-257, in the experiment with SNB-19, with HOP-92 and in the experiment on A549 was > 10 µM (inactive) throughout. For the same compound, the GI50 in the experiment on OVCAR-4, with COLO 205, in the experiment on M14, in the experiment on NCI/ADR-RES, in the experiment with SK-MEL-5 and with NCI-H23 was > 10 µM (inactive) in each case. The GI50 in the experiment with KM12, in the experiment on LOX IMVI, in the experiment with MCF7, with T47D and with TK-10 was > 10 µM (inactive) throughout.

Regarding `S=C(NCCc1ccccn1)N/N=C/c1ccccn1`, the GI50 in the experiment on OVCAR-8 is 0.0489 µM (active); in the experiment with HCC 2998 it was 3.06 µM (inactive); in the experiment on UACC-257, < 0.0113 µM (active); in the experiment with SNB-19, 2.28 µM (inactive); in the experiment on A549, 0.578 µM (active); with OVCAR-5, < 0.018 µM (active). The GI50 was 0.519 µM (active) with OVCAR-4; < 0.01 µM (active) with COLO 205; 0.0131 µM (active) in the experiment on M14; 0.0147 µM (active) with NCI/ADR-RES; 0.182 µM (active) in the experiment on SK-MEL-5; < 0.01 µM (active) in the experiment on NCI-H23. The GI50 was 0.106 µM (active) with KM12; < 0.0373 µM (active) with LOX IMVI; < 0.01 µM (active) with MCF7; < 0.01 µM (active) in the experiment on T47D; 0.42 µM (active) in the experiment with TK-10.

As to `COc1ccc(C2S/C(=C\c3ccccc3)C(=O)N2NC(=O)Cc2ccccc2)cc1` (stereo unspecified), the GI50 in the experiment on OVCAR-8, with UACC-257, in the experiment with HOP-92, in the experiment with A549, in the experiment with OVCAR-5 and in the experiment on OVCAR-4 was > 100 µM (inactive) each time. Also, the GI50 in the experiment with COLO 205, with M14, with SK-MEL-5, in the experiment with NCI-H23, in the experiment with KM12 and with LOX IMVI was > 100 µM (inactive) throughout. In the experiment with TK-10, the GI50 was > 100 µM (inactive).

For `CCNc1cc2c3c(c1)CCN3CCC2`, the GI50 was 8.59 µM (inactive) in the experiment with OVCAR-8; > 10 µM (inactive) in the experiment with HCC 2998; > 10 µM (inactive) in the experiment on UACC-257; > 10 µM (inactive) with SNB-19; > 10 µM (inactive) in the experiment on HOP-92; > 10 µM (inactive) in the experiment with A549. The GI50 in the experiment with OVCAR-4, with COLO 205, in the experiment on M14, with NCI/ADR-RES, in the experiment with SK-MEL-5 and in the experiment on NCI-H23 was > 10 µM (inactive) in each case. The GI50 with KM12 is 5.6 µM (inactive); in the experiment with LOX IMVI, > 10 µM (inactive); in the experiment on MCF7 it was > 10 µM (inactive); in the experiment on T47D, 4.71 µM (inactive); in the experiment with TK-10, > 10 µM (inactive).

As to `CCc1cc2c(c3c1CCC3=O)CC1(Cc3ccc(C)cc3C1)C2` (stereo unspecified), the GI50 was > 100 µM (inactive) in the experiment with OVCAR-8; 33.9 µM (inactive) in the experiment with HCC 2998; 32.2 µM (inactive) with UACC-257; 22.7 µM (inactive) with HOP-92; 18.2 µM (inactive) with A549; 29.4 µM (inactive) with OVCAR-5. The GI50 with OVCAR-4 is 33.2 µM (inactive); in the experiment on COLO 205 it was 27.8 µM (inactive); in the experiment with M14 it was > 100 µM (inactive); in the experiment on NCI/ADR-RES, > 100 µM (inactive); in the experiment on SK-MEL-5 it was 18.9 µM (inactive); in the experiment on NCI-H23 it was > 100 µM (inactive). Moreover, the GI50 was 71.3 µM (inactive) in the experiment with KM12; 50.4 µM (inactive) in the experiment with LOX IMVI; 32.2 µM (inactive) with MCF7; 14.1 µM (inactive) in the experiment with T47D; > 100 µM (inactive) in the experiment on TK-10.

Regarding `C=C(CN(CC)CC)C1(c2ccccc2)CC2(CCCC2)C(=O)O1` (stereo unspecified), the GI50 with OVCAR-8 is > 100 µM (inactive); in the experiment on HCC 2998 it was > 100 µM (inactive); with UACC-257, 34.4 µM (inactive); with SNB-19, > 100 µM (inactive); with HOP-92, 28.6 µM (inactive); in the experiment with A549 it was > 100 µM (inactive). The GI50 in the experiment with OVCAR-5 is > 100 µM (inactive); in the experiment with OVCAR-4 it was > 100 µM (inactive); in the experiment on COLO 205, 55 µM (inactive); in the experiment with M14 it was 45.5 µM (inactive); in the experiment with NCI/ADR-RES, 11.1 µM (inactive); in the experiment with SK-MEL-5 it was 68.4 µM (inactive). Further, the GI50 is 33 µM (inactive) in the experiment with NCI-H23; > 100 µM (inactive) in the experiment with KM12; > 100 µM (inactive) with LOX IMVI; > 100 µM (inactive) in the experiment with MCF7; > 100 µM (inactive) in the experiment with T47D; > 100 µM (inactive) in the experiment with TK-10.

As to `Cc1cc2c(cc1-c1cc3c(cc1C)C(C(C)C)=C(O)C(=O)/C3=C\Nc1ccccn1)/C(=C/Nc1ccccn1)C(=O)C(O)=C2C(C)C`, the GI50 was 29 µM (inactive) in the experiment on OVCAR-8; 22.5 µM (inactive) in the experiment on HCC 2998; > 100 µM (inactive) with UACC-257; 52.6 µM (inactive) in the experiment on SNB-19; > 100 µM (inactive) in the experiment with HOP-92; 31.3 µM (inactive) with A549. Moreover, the GI50 was > 100 µM (inactive) in the experiment on OVCAR-5; 34.9 µM (inactive) in the experiment on OVCAR-4; > 100 µM (inactive) in the experiment with COLO 205; 87.5 µM (inactive) in the experiment with M14; 27.9 µM (inactive) in the experiment on NCI/ADR-RES; 30.3 µM (inactive) in the experiment with SK-MEL-5. For the same compound, the GI50 with NCI-H23 was 46.9 µM (inactive); in the experiment with KM12, 24.5 µM (inactive); in the experiment with LOX IMVI, 35.4 µM (inactive); in the experiment with MCF7 it was 52.5 µM (inactive); with T47D, > 100 µM (inactive); with TK-10, > 100 µM (inactive).

In the case of `N#C/N=C1\NC(Cc2ccccc2)C(=O)N1CCc1c[nH]c2ccccc12` (stereo unspecified), the GI50 in the experiment with OVCAR-8 was 37.4 µM (inactive); in the experiment on HCC 2998 it was 19.8 µM (inactive); with UACC-257, 43.6 µM (inactive); with SNB-19, 37 µM (inactive); in the experiment on A549, 27 µM (inactive); in the experiment on OVCAR-4, 25.5 µM (inactive). Also, the GI50 in the experiment on COLO 205 was 19.7 µM (inactive); in the experiment on M14, 35.1 µM (inactive); in the experiment on SK-MEL-5, 17.8 µM (inactive); in the experiment with NCI-H23, 35.7 µM (inactive); with KM12 it was 29.4 µM (inactive); in the experiment on LOX IMVI, 35.2 µM (inactive). The GI50 with TK-10 is 26.6 µM (inactive).

In the case of `O=C(c1cccs1)N1CCc2ccccc2C1`, the GI50 was > 100 µM (inactive) with HCC 2998; > 100 µM (inactive) in the experiment with UACC-257; > 100 µM (inactive) in the experiment on SNB-19; 26.6 µM (inactive) in the experiment with HOP-92; > 100 µM (inactive) with A549; > 100 µM (inactive) in the experiment on OVCAR-5. For the same compound, the GI50 in the experiment with COLO 205 was > 100 µM (inactive); with M14, > 100 µM (inactive); with NCI/ADR-RES, 42.1 µM (inactive); in the experiment on SK-MEL-5 it was 62.4 µM (inactive); in the experiment with NCI-H23 it was > 100 µM (inactive); with KM12 it was 74.8 µM (inactive). Besides, the GI50 with LOX IMVI, in the experiment with MCF7, with T47D and in the experiment with TK-10 was > 100 µM (inactive) each time.
